From patent publication US20210137961A1, “Compositions and Methods for Treating Dry Eye Diseases” (priority 2017, published 2021)
Converted amounts (≈) assume the structure as drawn.

Assays:
[1] = Corneal permeability, Franz-Cell Diffusion Apparatus; assay type: in vitro ADME, bovine (calf)
Protocol: EXAMPLE. Corneal Permeability. Corneal permeability is determined using conventional protocols. Briefly, corneal permeability is determined on freshly excised bovine (calf) cornea using a Franz-Cell Diffusion Apparatus generally with n=3/group. Freshly excised calf cornea are stored until use in hydrating solution containing glutathione and buffer. The Apparatus includes a donor chamber on the top where a predetermined volume of the formulation is pipetted and a jacketed receptor cell with a sampling side arm. The joint between the donor and receptor cell is upward-convex, mimicking the shape of the cornea. The corneal membrane is placed on the ball joint with the cornea facing the donor chamber. The Apparatus is clamped to secure the cells with the donor and receptor chambers aligned. […] The volume is recorded. […] Test samples are added in rapid succession by depositing 200 μL of the formulation into each donor chamber using a calibrated pipet and the times recorded. […] Flux can be calculated by the formula: J=Q/(A·t), where Q is the quantity (micrograms) of compound traversing the membrane in time t (minutes), and A is the area of exposed membrane in cm^2. […] After completion of the diffusion, corneas are weighed to determine the quantity of bound test compound in the cornea, and the corneal thicknesses of each cornea is measured at the point of diffusion (the center) using Vernier calipers. […]

[2] = tested on: Moraxella catarrhalis; test: MIC against Moraxella catarrhalis; assay type: cell-based; settings: N 21
[3] = tested on: Neisseria gonorrhoeae; test: MIC against Neisseria gonorrhoeae; assay type: cell-based; settings: N 34
[4] = tested on: Chlamydophila pneumoniae; test: MIC against Chlamydophila pneumoniae; assay type: cell-based
[5] = MIC in the presence of serum; assay type: cell-based; settings: 10% serum
[6] = tested on: CXCL8; test: LPS-induced CXCL8 (IL-8) production in PMA-differentiated U937 cells (ELISA); assay type: cell-based, human
Protocol: EXAMPLE. […] Cells. The human monocytic cell line U937 was obtained from the American Type Culture Collection (ATCC, Rockville, Md.). PBMCs from COPD patients were obtained from Brompton hospital and separated by AccuSPIN (Sigma-Aldrich). […] U937 cells were differentiated into adherent macrophage-like morphology by exposure to PMA (50 ng/ml) for 48 h in complete growth medium. Cell viability was assessed microscopically by trypan blue staining. Cell toxicity was determined by MTT assay as needed. This study was approved by the ethics committee of the Royal Brompton Hospitals, and all subjects gave written informed consent. Cytokine ELISA. TNFα and IL-8 concentrations in the supernatant of cell cultures were determined by sandwich ELISA according to the manufacturer's instructions (R&D Systems Europe, Abingdon, UK). Statistical analysis. The results were expressed as the mean±SEM. Comparisons of data in two groups were performed using the Student's t test or the Wilcoxon signed rank test. Multiple comparisons were made by one-way ANOVA with post hoc test (Dunnett's) as appropriate. The difference was considered significant at p<0.05. […] Anti-inflammatory effects of solithromycin in U937 cells.

[7] = tested on: Mycoplasma pneumoniae; test: MIC against Mycoplasma pneumoniae; assay type: cell-based
[8] = speed of uptake and ultimate tissue concentration
[9] = tested on: Mycobacterium avium; test: MIC against Mycobacterium avium; assay type: cell-based; settings: N 30
[10] = tested on: S. epidermidis; test: MIC against S. epidermidis (30 species); assay type: cell-based
[11] = tested on: Immortalized human meibomian gland epithelial cells (HMGECs); test: HMGEC lysosome and neutral lipid accumulation, differentiation and proliferation; assay type: cell-based
Protocol: EXAMPLE. Immortalized human meibomian gland epithelial cells (HMGECs) are cultured in the presence of vehicle or test compound, such as Soli (2, 10, or 20 μg/ml) for 1 to 7 days under proliferating (keratinocyte serum-free medium; KSFM) or differentiating (DMEM/F12 plus 10% fetal bovine serum) conditions. A positive control (epidermal growth factor and bovine pituitary extract for proliferation; Azi for differentiation) and a negative control (media only) are included with the experiments. Additional details are described in JAMA Ophthalmol 132(2): 226-228 (Feb. 1, 2014) and Current Eye Research, 1-6 (2017), each of which is incorporated herein by reference.
HMGECs are evaluated for cell number, neutral lipid content (LipidTox) and lysosome accumulation (LysoTracker). […] Strong lysosomal effects are observed with the 10 μg/ml dose of Soli (relative stimulation=30), on the first day of dosing, and those effects are statistically different (p<0.01) from the control group (relative stimulation=13). In contrast, the 10 μg/m1Azi dose is not statistically different from the control group (relative stimulation=18) until day 3. […] Compounds described herein, such a Soli, affect lysosome and lipid accumulation and differentiation of HMGECs. The effect of Soli on lysosome appearance is faster than that of Azi.

CC[C@H]1OC(=O)[C@@](C)(F)C(=O)[C@H](C)[C@@H](O[C@@H]2O[C@H](C)C[C@H](N(C)C)[C@H]2O)[C@](C)(OC)C[C@@H](C)C(=O)[C@H](C)[C@H]2N(CCCCn3cc(-c4cccc(N)c4)nn3)C(=O)O[C@]12C [Solithromycin, solithromycin]
time after administration at which compound is observed in receptor fluid ([1]; bovine cornea, Franz cell): ≤ 1 h | concentration in receptor fluid ([1]; within 1 h of administration): > 1000 ng/mL | MIC50 [2]: 120 ng/mL (≈ 142 nM) | MIC90 [2]: 120 ng/mL (≈ 142 nM) | MIC Range [2]: ≤8 to 500 ng/mL | MIC50 [3]: 60 ng/mL (≈ 71 nM) | MIC90 [3]: 120 ng/mL (≈ 142 nM) | MIC Range [3]: 30 to 250 ng/mL | MIC90 ([4]; Chlamydophila pneumoniae (10 strains)): 250 ng/mL (≈ 296 nM) | MIC50 ([4]; Chlamydophila pneumoniae, N 10): 250 ng/mL (≈ 296 nM) | MIC90 ([4]; Chlamydophila pneumoniae, N 10): 250 ng/mL (≈ 296 nM) | MIC Range ([4]; Chlamydophila pneumoniae, N 10): 250 to 1000 ng/mL | change in MIC in the presence of serum [5]: 2 fold | IC50 ([6]; LPS, PMA-differentiated U937 cells, read-out: IC50 on CXCL8 release): 78.2 ± 9.5 µM | inhibition of CXCL8 (IL-8) production (in words) ([6]; solithromycin and telithromycin at 100 μM, clarithromycin at 333 μM): significantly inhibited | MIC90 ([7]; Mycoplasma pneumoniae (38 strains)): 0.125 ng/mL (≈ 0.148 nM) | MIC50 ([7]; Mycoplasma pneumoniae, N 38): 0.032 ng/mL (≈ 0.0379 nM) | MIC90 ([7]; Mycoplasma pneumoniae, N 38): 0.125 ng/mL (≈ 0.148 nM) | MIC Range ([7]; Mycoplasma pneumoniae, N 38): ≤6.3e-05 to 500 ng/mL | tissue distribution relative to Azi [8]: 10 fold | MIC50 [9]: 1000 ng/mL (≈ 1180 nM) | MIC90 [9]: 1000 ng/mL (≈ 1180 nM) | MIC Range [9]: 1000 ng/mL (≈ 1180 nM) | I = intermediate susceptibility [10]: 3% | MIC50 [10]: 15 ng/mL (≈ 17.8 nM) | MIC90 [10]: 32000 ng/mL (≈ 37900 nM) | NS = not susceptible [10]: 17% | S = susceptible [10]: 80% | lysosomal effects, relative stimulation ([11]; 10 μg/ml dose, first day of dosing, LysoTracker): 30 | accumulation of neutral lipids and lysosomes in HMGECs ([11]; 2, 10 or 20 μg/ml, 1 to 7 days): rapid and dose-dependent increase | proliferation of HMGECs ([11]; 7-day dosing period): does not cause unwanted proliferation
